Patent US6767909B2, “Compounds useful for treatment or prevention of disease mediated by alpha-2B-adrenoceptor” (Oy Juvantia Pharma Ltd., priority 2001, dated 2004)

Assays:
[1] = biological target: T1, human alpha-2C-adrenoceptor (Homo sapiens, UniProt P18825); assay: Human alpha-2-adrenoceptor binding affinity, 3H-rauwolscine competition binding; conditions: Mean ± SEM, membranes of Shionogi S115 cells transfected with human α2C
T1 construct: expressed in transfected cells
T1 sequence (P18825 1-462): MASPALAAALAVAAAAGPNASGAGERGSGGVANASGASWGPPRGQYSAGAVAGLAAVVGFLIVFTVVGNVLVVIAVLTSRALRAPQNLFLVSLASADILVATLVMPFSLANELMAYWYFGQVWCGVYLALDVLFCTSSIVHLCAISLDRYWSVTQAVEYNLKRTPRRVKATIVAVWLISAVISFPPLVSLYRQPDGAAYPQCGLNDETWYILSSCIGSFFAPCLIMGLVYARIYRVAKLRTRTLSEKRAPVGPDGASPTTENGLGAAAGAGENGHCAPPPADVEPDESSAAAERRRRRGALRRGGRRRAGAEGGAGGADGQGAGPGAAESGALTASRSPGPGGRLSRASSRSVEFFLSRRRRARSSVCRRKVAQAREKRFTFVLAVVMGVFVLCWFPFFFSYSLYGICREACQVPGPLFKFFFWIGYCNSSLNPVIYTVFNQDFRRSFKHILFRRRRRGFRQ
Protocol: (§1) Results expressed in the form of “>” means that no numerical values for Ki's could be established due to lack of displacement or due to incomplete competition curves.
(§2) Human Alpha-2-adrenoceptor Binding Affinity
(§3) After 30 min at room temperature, incubations were terminated by rapid vacuum filtration through GF/B glass fiber filter and three 5 ml washes with ice-cold incubation buffer. The filters were then dried, impregnated with scintillate and their radioactivity was measured by scintillation counting. The analysis of the experiments was carried out by non-linear least square curve fitting. […] Experiments were repeated a minimum of three times. to the incubation mixture. After an additional 60 min at room temperature, the incubation was terminated by rapid vacuum filtration through glass fibre filter. Filters were washed three times with 5 ml ice cold wash buffer (20 mM Tris, 5 mM MgCl2, 1 mM EDTA pH 7.4 at room temperature), dried and counted for radioactivity in a scintiallation counter. Analysis of experiments was carried out by non-linear least square fitting. Results are based on a minimum of three experiments.

[2] = biological target: T2, human alpha-2B-adrenoceptor (Homo sapiens, UniProt P18089); assay: as above; conditions: Mean ± SEM, membranes of Shionogi S115 cells transfected with human α2B
T2 construct: expressed in transfected cells
T2 sequence (P18089 1-450): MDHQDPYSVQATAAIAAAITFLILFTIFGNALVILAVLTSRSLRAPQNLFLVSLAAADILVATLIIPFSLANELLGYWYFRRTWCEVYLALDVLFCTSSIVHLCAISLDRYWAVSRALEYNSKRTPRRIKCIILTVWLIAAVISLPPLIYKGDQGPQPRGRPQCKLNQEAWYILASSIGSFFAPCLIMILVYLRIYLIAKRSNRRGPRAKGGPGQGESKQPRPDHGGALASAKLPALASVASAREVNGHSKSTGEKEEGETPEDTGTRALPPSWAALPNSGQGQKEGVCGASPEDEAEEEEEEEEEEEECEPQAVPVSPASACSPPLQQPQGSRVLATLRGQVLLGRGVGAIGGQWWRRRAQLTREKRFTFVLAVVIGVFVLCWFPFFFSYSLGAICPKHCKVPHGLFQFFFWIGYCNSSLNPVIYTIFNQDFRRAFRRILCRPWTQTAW
Protocol: as §1, §2, §3

[3] = biological target: T3, human alpha-2A-adrenoceptor (Homo sapiens, UniProt P08913); assay: as above; conditions: Mean ± SEM, membranes of Shionogi S115 cells transfected with human α2A
T3 construct: expressed in transfected cells
T3 sequence (P08913 1-465): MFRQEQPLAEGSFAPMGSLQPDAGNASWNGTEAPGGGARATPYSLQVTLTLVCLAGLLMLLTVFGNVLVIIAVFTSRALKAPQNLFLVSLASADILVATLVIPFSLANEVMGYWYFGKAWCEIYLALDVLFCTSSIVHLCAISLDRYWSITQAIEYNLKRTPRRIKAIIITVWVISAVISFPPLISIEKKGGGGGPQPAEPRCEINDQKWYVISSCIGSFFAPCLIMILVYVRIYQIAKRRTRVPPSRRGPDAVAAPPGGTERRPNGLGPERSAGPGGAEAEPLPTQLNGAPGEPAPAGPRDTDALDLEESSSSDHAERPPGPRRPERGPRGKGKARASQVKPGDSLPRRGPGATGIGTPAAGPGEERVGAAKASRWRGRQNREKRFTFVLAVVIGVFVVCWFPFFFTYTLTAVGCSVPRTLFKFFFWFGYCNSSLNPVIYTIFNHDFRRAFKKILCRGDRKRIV
Protocol: as §1, §2
(§4) After 30 min at room temperature, incubations were terminated by rapid vacuum filtration through GF/B glass fiber filter and three 5 ml washes with ice-cold incubation buffer. The filters were then dried, impregnated with scintillate and their radioactivity was measured by scintillation counting. The analysis of the experiments was carried out by non-linear least square curve fitting. Experimentally determined IC50 values were converted to Ki's by making use of the Cheng-Prusoff equation (Cheng and Prusoff, 1973). Experiments were repeated a minimum of three times. to the incubation mixture. After an additional 60 min at room temperature, the incubation was terminated by rapid vacuum filtration through glass fibre filter. Filters were washed three times with 5 ml ice cold wash buffer (20 mM Tris, 5 mM MgCl2, 1 mM EDTA pH 7.4 at room temperature), dried and counted for radioactivity in a scintiallation counter. Analysis of experiments was carried out by non-linear least square fitting. Results are based on a minimum of three experiments.

[4] = biological target: T1, human alpha-2C-adrenoceptor; assay: Antagonist activity: inhibition of epinephrine-stimulated 35S-GTPγS binding; format: biochemical; conditions: Mean ± SEM; CHO cell membranes, human α2C; 5 μM epinephrine; read-out: KB alpha-2C antagonist effect
Protocol: (§5) Antagonist Activity on Human Alpha-2-adrenoceptor Subtypes
as §3

[5] = biological target: T2, human alpha-2B-adrenoceptor; assay: as above; format: biochemical; conditions: Mean ± SEM; CHO cell membranes, human α2B; 15 μM epinephrine; read-out: KB alpha-2B antagonist effect
Protocol: as §5, §3

[6] = biological target: T3, human alpha-2A-adrenoceptor; assay: as above; format: biochemical; conditions: Mean ± SEM; CHO cell membranes, human α2A; 5 μM epinephrine; read-out: KB alpha-2A antagonist effect
Protocol: as §5
Membranes (2-6 μg of protein per sample) and 12 concentrations of test compound were preincubated for 30 min with a fixed concentration fo epinephrine (5 μM for α2A, 15 μM for α2B, 5 μM for α2C) in 50 mM Tris, 5 mM MgCl2, 150 mM NaCl, 1 mM DTT, 1 mM EDTA, 10 μM GDP, 30 μM ascorbic acid, pH 7.4 at room temperature. Binding of radiolabel was started by the addition of trace amounts of ^35S-GTPγS (0.08-0.15 nM, specific activity 1250 Ci/mmol)
as §4

| Ki [1] | Ki [2] | Ki [3] | Kb [4] | Kb [5] | Kb [6] | Compound |
| --- | --- | --- | --- | --- | --- | --- |
| > 30 µM | 0.16 ± 0.02 µM | > 13 µM |  |  |  | Cc1cc(C)nc(NS(=O)(=O)c2ccc(NCc3nc4ccccc4n3CC(C)C)cc2)n1 [Compound A, N-(4,6-Dimethylpyrimidin-2-yl)-4-[(1-isobutyl-1H-benzimidazol-2-ylmethyl)-amino]-benzenesulfonamide] |
| > 10 µM | 0.034 ± 0.002 µM | > 4.5 µM | 5.7 ± 0.7 µM | 0.075 ± 0.009 µM | 14.5 ± 3.6 µM | Cc1cc(C)nc(NS(=O)(=O)c2ccc(NCc3ccccc3C)cc2)n1 [Compound B, N-(4,6-Dimethylpyrimidin-2-yl)-4-(2-methylbenzylamino)-benzenesulfonamide] |
| > 10 µM |  | 2 ± 0.4 µM | 6.3 ± 1.4 µM |  | 5.4 ± 1.4 µM | Cc1cc(C)nc(NS(=O)(=O)c2ccc(NCc3c(Cl)cccc3Cl)cc2)n1 [Compound C, 4-(2,6Dichlorobenzylamino)-N-(4,6-dimethylpyrimidin-2-yl)-benzenesulfonamide] |
| > 10 µM | 0.44 ± 0.07 µM | > 10 µM |  |  |  | Cc1cc(C)nc(NS(=O)(=O)c2ccc(NCc3ccc4ccccc4c3)cc2)n1 [Compound D, N-(4,6-Dimethylpyrimidin-2-yl)-4-[(naphthalen-2-ylmethyl)-amino]-benzenesulfonamide] |
| > 10 µM | 0.02 ± 0.004 µM | > 5.1 µM | 7.3 ± 1.1 µM | 0.029 ± 0.005 µM | 7.9 ± 3.1 µM | COc1cccc(CNc2ccc(S(=O)(=O)Nc3nc(C)cc(C)n3)cc2)c1 [Compound E, N-(4,6-Dimethylpyrimidin-2yl-)4(3-methoxybenzylamino)-benzenesulfonamide] |
| > 10 µM | 0.043 ± 0.007 µM | > 4.3 µM | 12 ± 2 µM | 0.24 ± 0.06 µM | 8.7 ± 1.1 µM | CCn1cc(CNc2ccc(S(=O)(=O)Nc3nc(C)cc(C)n3)cc2)c2ccccc21 [Compound F, N-(4,6-Dimethylpyrimidin-2-yl)-4-[(1-ethyl-1H-indol-3-ylmethyl)-amino]-benzenesulfonamide] |
| > 10 µM | 0.032 ± 0.005 µM | 2.2 ± 0.6 µM | 4.7 ± 1.8 µM | 0.086 ± 0.064 µM | 3.2 ± 0.5 µM | COc1ccccc1CCNc1ccc(S(=O)(=O)Nc2nc(C)cc(C)n2)cc1 [Compound G, N-(4,6-Dimethylpyrimidin-2-yl)-4-[2-(2-methoxyphenyl)-ethylamino]-benzenesulfonamide] |
| > 30 µM | 8 ± 0.5 µM | > 30 µM |  |  |  | Cc1cc(C)nc(NS(=O)(=O)c2ccc(NC(c3ccccc3)c3ccccc3)cc2)n1 [Compound H, 4-(Benzhydrylamino)-N-(4,6-dimethylpyrimidin-2-yl)-benzenesulfonamide] |
